Assays:
Assay in all cases: fitness (endpoint OD595 vs no drug) (fraction); higher = more growth
[1] = tested on: S. aureus DSM 20231
Procedure, shortened: (§1)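 Background-subtracted growth curves were the basis for fitness, taken as the optical density at entry into stationary phase over the robust mean of no-drug control wells. A cap of 1 was applied. The curves came from OD595 readings every 30 min for 14 h at 37 °C, in 384-well plates seeded at OD595 0.01 with 30 µl, or 55 µl for S. pneumoniae.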

[2] = tested on: S. aureus Newman
Procedure, shortened: as §1

[3] = tested on: S. pneumoniae D39V
Procedure, shortened: as §1

CO[C@@]12[C@H](COC(N)=O)C3=C(C(=O)C(C)=C(N)C3=O)N1C[C@@H]1N[C@@H]12 [Mitomycin C] + CN[C@@H]1[C@H](O)[C@H](NC)[C@H]2O[C@@]3(O)C(=O)C[C@@H](C)O[C@H]3O[C@@H]2[C@H]1O [Spectinomycin]
fitness
Conditions | first compound 0.001075 µg/mL | first compound 0.00215 µg/mL | first compound 0.0043 µg/mL | first compound 0.0156 µg/mL | first compound 0.0312 µg/mL | first compound 0.0625 µg/mL
[1], partner 4 µg/mL | – | – | – | 0.726 | 0.729 | 0.67
[1], partner 8 µg/mL | – | – | – | 0.705 | 0.733 | 0.62
[1], partner 16 µg/mL | – | – | – | 0.687 | 0.667 | 0.57
[2], partner 4 µg/mL | – | – | – | 0.653 | 0.656 | 0.496
[2], partner 8 µg/mL | – | – | – | 0.662 | 0.684 | 0.432
[2], partner 16 µg/mL | – | – | – | 0.603 | 0.541 | 0.33
[3], partner 4 µg/mL | 0.899 | 0.814 | 0.746 | – | – | –
[3], partner 8 µg/mL | 0.916 | 0.824 | 0.647 | – | – | –
[3], partner 16 µg/mL | 0.839 | 0.784 | 0.628 | – | – | –

fitness, one replicate
Conditions | first compound 0.002 µg/mL | first compound 0.004 µg/mL | first compound 0.008 µg/mL | first compound 0.0156 µg/mL | first compound 0.0312 µg/mL | first compound 0.0625 µg/mL
[1], partner 32 µg/mL | – | – | – | 0.614 | 0.475 | 0.258
[1], partner 64 µg/mL | – | – | – | 0.0362 | 0.0235 | 0.0021
[2], partner 32 µg/mL | – | – | – | 0.294 | 0.158 | 0.034
[2], partner 64 µg/mL | – | – | – | 0.017 | 0.0135 | 0
[3], partner 4 µg/mL | 0.903 | 0.851 | 0.638 | – | – | –
[3], partner 8 µg/mL | 0.812 | 0.77 | 0.562 | – | – | –

Source: the supplement of paper PMC10627819
